Laboratory results from patent publication US4654348A, “Pyrazolo[4,3-d]pyrimidine derivative, process for its production, antihyperlipidemic agent containing it, its intermediate, and process for the production of the intermediate” (Nissan Chemical Industries Ltd., priority 1984, dated 1987).

Tested on: emulsion-induced hyperlipidemic rats
Assay: Test 1: antihyperlipidemic activity in emulsion-induced hyperlipidemic rats (serum Chol, HDL-Chol, liver weight)
Type: in vivo, male S.D. rats
Conditions: 3 days, vs control; for change in vivo at 300 mg/kg / inhibition in vivo at 300 mg/kg: Rattus norvegicus, po, 72 h, 300 mg/kg/day via stomach tube; for change in vivo at 300 mg/kg: read-out: Increase rate of serum HDL-Chol; for inhibition in vivo at 300 mg/kg: read-out: Reduction rate of serum Chol.; for Degree of hepatomegaly (change rate of the liver weight): liver weight per 100 g body weight, 300 mg/kg/day
Protocol: The antihyperlipidemic activity in emulsion-induced hyperlipidemic rats:
Male S.D. rats weighing 80-90 g (4 weeks old) were used. They were divided into groups of 5 to 6 rats each. The test compounds suspended in 0.5% CMC-Na(carboxymethyl cellulose sodium salt) were given to the rats in a daily dose of 4 ml/kg (i.e. 300 mg/kg of the test compounds) via stomach tube every 10:00 a.m. After 30 min., lipids emulsion having the following composition was orally given to the rats in an amount of 2.5 ml per rat.
Cholic acid sodium salt 10.0 g
During the experimental period of 3 days, the rats were fed on a standard commercial diet and water ad libitum. […] The total cholesterol and HDL cholesterol were measured.
The weight of the liver was measured. To the control group, only the aqueous CMC-Na solution and the lipids emulsion were given.
The fractionation of lipoproteins was conducted by a dextran sulfate-MgCl2 precipitation method.
Cholesterol in serum was measured by means of a cholesterol measuring kit (Cholesterol C-Test Wako, manufactured by Wako Junyaku Co., Ltd.), and cholesterol in HDL was measured by means of NC Hi-Set, manufactured by Nippon Chemiphar Co., Ltd.
Further, the reduction rate of Chol was calculated by the following equation. [formula] where A is the amount of serum Chol (mg/dl) of the control group, and B is the amount of serum Chol (mg/dl) of the group to which the therapeutic agent was administered.
Likewise, the increase rate of HDL-Chol was calculated by the following equation. [formula] where C is the amount of serum HDL-Chol (mg/dl) of the control group, and D is the amount of serum HDL-Chol (mg/dl) of the group to which the therapeutic agent was administered.
The degree of hepatomegaly (i.e. the change rate of the liver weight) was calculated by the following equation. [formula] where E is the liver weight (g) per 100 g of the body weight of the control group, and F is the liver weight (g) per 100 g of the body weight of the group to which the therapeutic agent was administered.

Compound	change in vivo at 300 mg/kg [%]	inhibition in vivo at 300 mg/kg [%]	Degree of hepatomegaly (change rate of the liver weight)
CCCCCCCCCCCCCCCOc1c2ncnc(SCC(=O)OCC)c2nn1C [Example 4, 2-Methyl-3-n-pentadecyloxy-7-ethoxycarbonylmethylthio-pyrazolo[4,3-d]pyrimidine]	20	48	+2%
C=CCCCCCCCCCOc1c2ncnc(SCC(=O)OCC)c2nn1C [Example 73, 2-Methyl-3-(10-undecenyloxy)-7-ethoxycarbonylmethylthio-pyrazolo[4,3-d]pyrimidine]	–	27	–
CCCCCCCCCCCCCCC(C)Oc1c2ncnc(SCC(=O)OCC)c2nn1C (stereo not shown) [Example 43, 2-Methyl-3-(1-methylpentadecyloxy)-7-ethoxycarbonylmethylthio-pyrazolo[4,3-d]pyrimidine]	–	28	–
C=CCSc1ncnc2c(OCCCCCCCCCCCCCCCC)n(C)nc12 [Example 22]	–	11	–
CCOC(=O)CSc1ncnc2c(OCCC(C)CCCC(C)CCCC(C)C)n(C)nc12 (stereo not shown) [Example 41, 2-Methyl-3-(3,7,11-trimethyl-dodecyloxy)-7-ethoxycarbonylmethylthio-pyrazolo[4,3-d]pyrimidine]	–	48	–
C=CCCCCCCCCOc1c2ncnc(SCC(=O)OCC)c2nn1-c1ccccc1 [Example 51, 2-Phenyl-3-(9-decenyloxy)-7-ethoxycarbonylmethylthio-pyrazolo[4,3-d]pyrimidine]	–	58	–
CCCCC/C=C\C/C=C\CCCCCCCCOc1c2ncnc(SCC#N)c2nn1C [Example 57, 2-Methyl-3-linoleyloxy-7-cyanomethylthio-pyrazolo[4,3-d]pyrimidine]	–	61	–
CCCCCCCC/C=C/CCCCCCCCOc1c2ncnc(SCC(=O)OCC)c2nn1C [Example 70, 2-Methyl-3-elaidyloxy-7-ethoxycarbonylmethylthio-pyrazolo[4,3-d]pyrimidine]	–	63	–
CCCCCCCCCCCCCCCCOc1c2ncnc(SCCc3ccccc3)c2nn1C [Example 21, 2-Methyl-3-n-hexadecyloxy-7-phenethylthio-pyrazolo[d]pyrimidine]	–	10	–
CCOC(=O)C(C)(C)Sc1ncnc2c(OCCO)n(C)nc12 [Example 30, 2-Methyl-3-(2-hydroxyethyloxy)-7-(1-ethoxycarbonyl-1-methyl-ethylthio) pyrazolo[4,3-d]pyrimidine]	–	28	–
CCCCCCCCCCCCCCCCCCCCOc1c2ncnc(SC(C)(C)C(=O)OCC)c2nn1C [Example 29, 2-Methyl-3-n-eicosyloxy-7-(1-ethoxycarbonyl-1-methyl-ethylthio)-pyrazolo[4,3-d]pyrimidine]	–	16	–
CCCCCCCCCCCCCCCCOc1c2ncnc(SCc3ccc(Cl)c(Cl)c3)c2nn1C [Example 20, 2-Methyl-3-n-hexadecyloxy-7-(3,4-dichlorophenylmethylthio)-pyrazolo[4,3-d]pyrimidine]	–	19	–
CCOC(=O)CSc1ncnc2c(OCCC(C)CCCC(C)CCCC(C)CCCC(C)C)n(C)nc12 (stereo not shown) [Example 40, 2-Methyl-3-(3,7,11,15-tetramethylhexadecyloxy)-7-ethoxycarbonylmethylthio-pyrazolo[4,3-d]pyrimidine]	–	50	–
CCCCSCCOc1c2ncnc(SCC(=O)OCC)c2nn1-c1ccccc1 [Example 49, 2-Phenyl-3-(3-thia-heptyloxy)-7-ethoxycarbonylmethylthio-pyrazolo[4,3-d]pyrimidine]	–	14	–
CCCCCCCCCCCCCCCCOc1c2ncnc(SC(C)(C)C(=O)OCC)c2nn1C [Example 26, 2-Methyl-3-n-hexadecyloxy-7-(1-ethoxycarbonyl-1-methyl-ethylthio)pyrazolo [4,3-d]pyrimidine]	–	16	–
CCCCCCCCCCCCCCCCOc1c2ncnc(SC3C(=O)OCC3C)c2nn1C (stereo not shown) [Example 25, 2-Methyl-3-n-hexadecyloxy-7-[4-(3-methyl-5-oxotetrahydrofuranyl)thio]-pyrazolo[4,3-d]pyrimidine]	–	11	–
C=CCCCCCCCCOc1c2ncnc(SCC(=O)OCC)c2nn1C [Example 45, 2-methyl-3-(9-decenyloxy)-7-ethoxycarbonylmethylthio-pyrazolo[4,3-d]pyrimidine]	–	22	–

Compound	change in vivo at 300 mg/kg [%]	inhibition in vivo at 300 mg/kg [%]	Degree of hepatomegaly (change rate of the liver weight)
CCCCCCCCCCCCOc1c2ncnc(SC(C)(C)C(=O)OCC)c2nn1-c1ccccc1 [Example 32, 2-Phenyl-3-n-dodecyloxy-7-(1-ethoxycarbonyl-1-methylethylthio)-pyrazolo[4,3-d]pyrimidine]	–	50	–
CCCCCCCCCCCCCCCCOc1c2ncnc(SCCCCCC)c2nn1C [Example 23, 2-Methyl-3-n-hexadecyloxy-7-n-hexylthiopyrazolo[4,3-d]pyrimidine]	30	39	0%
CCCCCCCCCCCCCCCCCCOc1c2ncnc(SCC(=O)OCC)c2nn1C [Example 6, 2-Methyl-3-n-octadecyloxy-7-ethoxycarbonylmethylthio-pyrazolo[4,3-d]pyrimidine]	9	31	-1%
CCCCCCCC/C=C\CCCCCCCCOc1c2ncnc(SCC(=O)OCC)c2nn1-c1ccccc1 [Example 50, 2-Phenyl-3-oleyloxy-7-ethoxycarbonylmethylthio-pyrazolo[4,3-d]pyrimidine]	–	35	–
CCCCCC/C=C/CCCCCCCCCCOc1c2ncnc(SCC(=O)OCC)c2nn1C [Example 72, 2-Methyl-3-vaccenyloxy-7-ethoxycarbonylmethylthio-pyrazolo[4,3-d]pyrimidine]	–	58	–
CCOC(=O)CSc1ncnc2c(OCCOCc3ccc(C(C)(C)C)cc3)n(-c3ccccc3)nc12 [Example 48, 2-Phenyl-3-[2-(4-t-butylbenzyloxy)ethyloxy]-7-ethoxycarbonylmethylthio-pyrazolo[4,3-d]pyrimidine]	–	34	–
CCOC(=O)CSc1ncnc2c(OC3CCC(C4CCCCC4)CC3)n(C)nc12 (stereo not shown) [Example 34, 2-Methyl-3-(4-cyclohexyl-cyclohexyloxy)-7-ethoxycarbonylmethylthio-pyrazolo[4,3-d]pyrimidine]	–	12	–
CCCCCCCC/C=C\CCCCCCCCCCCCOc1c2ncnc(SCC(=O)OCC)c2nn1C [Example 69, 2-Methyl-3-erucyloxy-7-ethoxycarbonylmethylthio-pyrazolo[4,3-d]pyrimidine]	–	59	–
CCCCCCCCCCCCCCOc1c2ncnc(SCC(=O)OCC)c2nn1C [Example 3]	–	41	–
CCOC(=O)CSc1ncnc2c(OCCOCc3ccccc3)n(C)nc12 [Example 36, 2-Methyl-3-(2-benzyloxyethoxy)-7-ethoxycarbonylmethylthio-pyrazolo[4,3-d]pyrimidine]	–	44	–
CCCCCCCCCCCCCCCCCCCCOc1c2ncnc(SCC(=O)OCC)c2nn1C [Example 8, 2-Methyl-3-n-eicosanyloxy-7-ethoxycarbonylmethylthio-pyrazolo[4,3-d]pyrimidine]	–	37	–
CCCCCCCOc1c2ncnc(SCC(=O)OCC)c2nn1-c1ccccc1 [Example 31, 2-Phenyl-3-n-heptyloxy-7-ethoxycarbonylmethylthio-pyrazolo[4,3-d]pyrimidine]	–	51	–
CCOC(=O)CSc1ncnc2c(OCCOCc3ccc(C(C)(C)C)cc3)n(C)nc12 [Example 38, 2-Methyl-3-[2-(4-t-butylbenzyloxy)ethoxy]-7-ethoxycarbonylmethylthio-pyrazolo[4,3-d]pyrimidine]	–	15	–
CCCCC/C=C\C/C=C\CCCCCCCCOc1c2ncnc(SCCCC(=O)OCC)c2nn1C [Example 59, 2-Methyl-3-linoleyloxy-7-[3-(ethoxycarbonyl)propylthio]-pyrazolo[4,3-d]pyrimidine]	–	68	–
CCCCCCCCCCCCCCCCOc1c2ncnc(SCC(=O)OCCCC)c2nn1C [Example 33, 2-Methyl-3-n-hexadecyloxy-7-n-butoxycarbonylmethylthio-pyrazolo[4,3-d]pyrimidine]	–	39	–
CCCCCCCCCCCCCCCCOc1c2ncnc(SCC(=O)OC)c2nn1C [Example 15, 2-Methyl-3-n-hexadecyloxy-7-methoxycarbonylmethylthio-pyrazolo[4,3-d]pyrimidine]	–	53	–
CCCCCCCCCCCCCCCCOc1c2ncnc(SCC(=O)OC(C)C)c2nn1C [Example 16, 2-Methyl-3-n-hexadecyloxy-7-isopropoxycarbonylmethylthio-pyrazolo[4,3-d]pyrimidine]	–	26	–
